Measured values as given in US20200115353A1, “NEW COMPOUNDS INHIBITORS OF THE YAP/TAZ-TEAD INTERACTION AND THEIR USE IN THE TREATMENT OF MALIGNANT MESOTHELIOMA” (INVENTIVA, priority 2017, published 2020).

Experiments:
[1] = test system: Met5A cell line; experiment: Cell proliferation in YAP-independent cell line (EdU); format: cell-based; conditions: FIG. 1
Experimental: (§1) The tumor cell growth inhibitory activity of the YAP-TEAD interaction inhibitors was evaluated in NCI-H2052 mesothelioma cell line harboring a NF2 mutation. This cell line was selected based on its mutational status and the ability of a siRNA directed against YAP, TAZ or TEAD1-4 to inhibit cell proliferation. The nuclear localization of YAP at confluence was also taken into account. Based on these observations we were able to classify several “YAP dependent cells” where YAP is clearly nuclear and in which a cell growth inhibition is observed by using siRNA (NCI-H2052, SKOV-3, ACHN, A549) and the “YAP independent cells” where YAP is preferentially located in the cytoplasm and in which no inhibition of cell growth is observed by using a siRNA (SW620, Met-5a). […] After one day growth in the starvation medium, cells were incubated with compounds. The starting concentration was 30 μM and serial dilutions in DMSO and medium were performed until 0.1 μM to achieve a final DMSO concentration of 0.5%. The cells were then allowed to grow for 3 days, and then, EdU (Invitrogen, Molecular Probe) was added in each well at a final concentration of 10 μM and the cells were returned to the incubator for additional 24 h. Starvation medium was removed and 100 μl of PFA 4% containing Hoechst dye was adding in each well to fix the cells. Plates were then incubated at rt for 15 minutes, washed twice with PBS and the cells were permeabilized by adding 100 μl per well of triton-100 containing 0.3% BSA. After 20 minutes cells were washed with PBS and the EdU detection was performed according to the instructions of the manufacturer. Image acquisition was performed using the ImageXpress Micro and analysed using the MetaXpress software (Molecular Device).
(§2) Results were expressed as a percent of inhibition (%) of the cell proliferation values obtained with 0.5% DMSO treatment alone. The cellular response was determined by fitting the concentration response curves using a 3 parameter curve fit equation and determining the concentration that inhibited cell growth between 50% and 100%.

[2] = test system: NCI-H2052 mesothelioma cell line; experiment: Inhibition of malignant mesothelioma tumor cell growth (EdU proliferation); format: cell-based; conditions: NF2 mutated cell line, 0.1-30 μM, FIG. 1
Experimental: as §1, §2

[3] = target: T1, YAP-TEAD interaction (full length human TEAD1-Gal4 fusion, full length YAP mutant S127A, S397A) (UniProt P04386+P28347); experiment: Cell-based TEAD-GAL4 transactivation assay (luciferase reporter, HEK293); conditions: HEK293 cells, compounds 0.1 μM to 30 μM, 24 h, concentration that inhibited the luciferase activity by 50%
T1 construct: The TEAD1 construct was prepared by cloning the full length human TEAD1 cDNA; expressed in transfected cells; host or cells: HEK293 GripTite 293 MSR (Invitrogen R795-07), transiently transfected with pSG5_CMV plasmids
Experimental: To identify inhibitors of YAP-TEAD interaction, a transient transactivation assays was carried out into HEK293 cell line (HEK293 GripTite™ 293 MSR (Invitrogen R795-07)) using plasmids containing the full length TEAD1 sequences, the full length YAP mutant (S127A, S397A) and a luciferase gene reporter. All expression constructs were performed into pSG5 backbone plasmid in which the SV40 promoter was replaced by the CMV promoter. The TEAD1 construct was prepared by cloning the full length human TEAD1 cDNA in fusion with the Gal4 DNA Binding Domain (AA 1-148) into pSG5_CMV to create the TEAD1(FL)_hum_pSG5Gal4_CMV. The full length YAP mutant (S127A, S397A) was also cloned into pSG_5 CMV to create the YAP(FL)_hum_pSG5_[…]. The reporter plasmid GAL4(5×RE)_[…]_pGL3-Basic contains 5 copies of the GAL4 responsive element (5′-TCGGAGGACAGTACTCC-3′) upstream of the thymidine kinase (TK) promoter (−105/+56) inserted in a pGL3-Basic vector. To evaluate the selectivity of our compounds in blocking the YAP-TEAD interaction, a counter-screening protein-protein interaction transactivation assays was also established. Briefly, two other expression plasmids, the pBD-P53 which express the P53 (AA 72-390) in fusion with Gal4 and the pAD-SV40T which express the SV40 large T antigen (AA 84-708,AgT), were created. HEK293 cells were seeded at 5×10^4 cells/well in 96 well plates (assay plates) in DMEM medium containing 4.5 g/L D-glucose, 10% high inactivated (HI) fetal bovine serum 1% Glutamax, 1% non-essential amino acid and 1% sodium pyruvate and 0.5% penicillin/streptomycin 37° C. in a humidified atmosphere of 8% CO2. After 24 h, transfections are performed using Jet-PEI as transfectant (101B-010 Polyplus Transfection), according to the instructions of the manufacturer (N/P=10) and a ratio YAP/TEAD=10 (per well: 50 ng of YAP(FL), 5 ng of TEAD(FL) and 50 ng of reporter plasmid). Six hours after cell transfection, the plates (‘assay plate’) were washed with 100 μl PBS per well and cell were treated with compounds in semi-log from 0.1 μM to 30 μM or DMSO 0.5% as control in DMEM 4.5 g/L D-Glucose without phenol red, 0.3% BSA, 1% glutamax, 1% NEAA, 1% sodium pyruvate. Twenty-four hours later, the luciferase activity was determined after addition of 100 μl of Steady Glo™ luciferase assay system (Promega E2550) according to the manufacturer's directions. Luciferase activity in cell extracts is measured by reading luminescence using the Envision device.
The cellular response was determined by fitting the concentration response curves using a 3-parameter curve fit equation and determining the concentration that inhibited the luciferase activity by 50%.

T1 sequence (P04386+P28347 fused, stated change not applied): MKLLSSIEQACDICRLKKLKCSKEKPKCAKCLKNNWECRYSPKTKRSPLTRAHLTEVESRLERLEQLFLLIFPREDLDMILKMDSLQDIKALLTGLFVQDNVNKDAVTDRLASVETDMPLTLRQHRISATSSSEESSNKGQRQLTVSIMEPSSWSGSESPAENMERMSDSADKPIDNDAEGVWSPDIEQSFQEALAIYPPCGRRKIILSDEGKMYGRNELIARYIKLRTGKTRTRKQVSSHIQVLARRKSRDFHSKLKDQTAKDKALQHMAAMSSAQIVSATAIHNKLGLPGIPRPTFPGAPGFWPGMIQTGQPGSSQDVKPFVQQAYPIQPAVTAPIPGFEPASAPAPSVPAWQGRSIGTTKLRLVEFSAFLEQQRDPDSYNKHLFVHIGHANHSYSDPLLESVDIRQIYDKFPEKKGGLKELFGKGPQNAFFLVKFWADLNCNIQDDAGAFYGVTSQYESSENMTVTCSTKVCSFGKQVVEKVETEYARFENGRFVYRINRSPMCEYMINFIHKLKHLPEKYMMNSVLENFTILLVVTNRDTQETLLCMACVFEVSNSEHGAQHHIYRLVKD

melting point [°C]	Structure (SMILES)	effect on proliferation of Met5A cell line [1]	NCI-H2052 mesothelioma cell proliferation [2]	IC50 [3] [µM]
256 to 258	COc1cc(/C=N/N(CCc2ccccc2)C2=NS(=O)(=O)c3ccccc32)ccc1F [Ex 46, N-[(E)-(4-fluoro-3-methoxy-phenyl)methyleneamino]-1,1-dioxo-N-(2-phenylethyl)-1,2-benzothiazol-3-amine]	–	–	–
256 to 258	CN(/N=C/c1cnc(N2CCC2)s1)C1=NS(=O)(=O)c2ccccc21 [Ex 61, N-[(E)-[2-(azetidin-1-yl)thiazol-5-yl]methyleneamino]-N-methyl-1,1-dioxo-1,2-benzothiazol-3-amine]	–	–	–
230 to 280	CN(/N=C/c1ccc(F)c(OC(F)(F)F)c1)C1=NS(=O)(=O)c2ccccc21 [Ex 78, N-[(E)-[4-fluoro-3-(trifluoromethoxy)phenyl]methyleneamino]-N-methyl-1,1-dioxo-1,2-benzothiazol-3-amine]	–	–	–
289 to 291	CCN(/N=C/c1ccc2c(c1)C(C)(C)NC2=O)C1=NS(=O)(=O)c2ccccc21 [Ex 85, 5-[(E)-[(1,1-dioxo-1,2-benzothiazol-3-yl)-ethyl-hydrazono]methyl]-3,3-dimethyl-isoindolin-1-one]	–	–	–
207 to 208	COc1cc(/C=N/N(CC(C)(C)CO)C2=NS(=O)(=O)c3ccccc32)ccc1F [Ex 108, 3-[(1,1-dioxo-1,2-benzothiazol-3-yl)-[(E)-(4-fluoro-3-methoxy-phenyl)methyleneamino]amino]-2,2-dimethyl-propan-1-ol]	–	–	–

Further lines, the compound ahead of its results:

Structure (SMILES)	melting point [°C]	effect on proliferation of Met5A cell line [1]	NCI-H2052 mesothelioma cell proliferation [2]	IC50 [3] [µM]
CN(/N=C/c1ccc2[nH]c(=O)n(C3CCC3)c2c1)C1=NS(=O)(=O)c2ccccc21 [Ex 28, 3-cyclobutyl-5-[(E)-[(1,1-dioxo-1,2-benzothiazol-3-yl)-methyl-hydrazono]methyl]-1H-benzimidazol-2-one]	–	without showing any effect	inhibited NCI-H2052 mesothelioma cell proliferation	3.06
COc1cc(/C=N/N(C)C2=NS(=O)(=O)c3cc(B(O)O)ccc32)ccc1F [Ex 50, [3-[[(E)-(4-fluoro-3-methoxy-phenyl)methyleneamino]-methyl-amino]-1,1-dioxo-1,2-benzothiazol-6-yl]boronic acid]	–	without showing any effect	inhibited NCI-H2052 mesothelioma cell proliferation	3.03
COc1cc(/C=N/N(C)C2=NS(=O)(=O)c3cc(O)ccc32)ccc1F [Ex 51, 3-[[(E)-(4-fluoro-3-methoxy-phenyl)methyleneamino]-methyl-amino]-1,1-dioxo-1,2-benzothiazol-6-ol]	258	–	–	–
COCCOc1ccc2c(c1)C(N(C)/N=C/c1ccc(F)c(OC)c1)=NS2(=O)=O [Ex 56, N-[(E)-(4-fluoro-3-methoxy-phenyl)methyleneamino]-5-(2-methoxyethoxy)-N-methyl-1,1-dioxo-1,2-benzothiazol-3-amine]	200	–	–	2.31
COc1cc(/C=N/N(C)C2=NS(=O)(=O)c3cc(B4OC(=O)CN(C)CC(=O)O4)ccc32)ccc1F [Ex 68, 2-[3-[[(E)-(4-fluoro-3-methoxy-phenyl)methyleneamino]-methyl-amino]-1,1-dioxo-1,2-benzothiazol-6-yl]-6-methyl-1,3,6,2-dioxazaborocane-4,8-dione]	–	without showing any effect	inhibited NCI-H2052 mesothelioma cell proliferation	4.5
Cc1ncc(/C=N/N(C)C2=NS(=O)(=O)c3ccccc32)s1 [Ex 118, N-methyl-N-[(E)-(2-methylthiazol-5-yl)methyleneamino]-1,1-dioxo-1,2-benzothiazol-3-amine]	248	–	–	3.97
